Measured values reported in PubChem BioAssay (NCI).
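The compound was tested at five concentrations on cells cultured in 96-well plates, with a 48-hour exposure period. Here, GI50 denotes the concentration required for 50% inhibition of growth. TGI marks complete inhibition of growth.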

Legend:
Assay in all cases: NCI tumour cell line growth inhibition, 48 h
BT-549 breast = test system: BT-549 breast
SK-MEL-5 melanoma = test system: SK-MEL-5 melanoma
SW-620 colon = test system: SW-620 colon
TK-10 renal = test system: TK-10 renal
HT29 colon = test system: HT29 colon
RXF 393 renal = test system: RXF 393 renal
HCC-2998 colon = test system: HCC-2998 colon
KM12 colon = test system: KM12 colon
OVCAR-5 ovarian = test system: OVCAR-5 ovarian
HL-60(TB) leukemia = test system: HL-60(TB) leukemia
ACHN renal = test system: ACHN renal
HOP-62 NSCLC = test system: HOP-62 NSCLC
UO-31 renal = test system: UO-31 renal
MALME-3M melanoma = test system: MALME-3M melanoma
PC-3 prostate = test system: PC-3 prostate
HS 578T breast = test system: HS 578T breast
SK-OV-3 ovarian = test system: SK-OV-3 ovarian
MDA-MB-231 breast = test system: MDA-MB-231 breast
IGROV1 ovarian = test system: IGROV1 ovarian
MDA-MB-435 = test system: MDA-MB-435
A498 renal = test system: A498 renal
CAKI-1 renal = test system: CAKI-1 renal
UACC-62 melanoma = test system: UACC-62 melanoma
NCI/ADR-RES ovarian = test system: NCI/ADR-RES ovarian
RPMI-8226 leukemia = test system: RPMI-8226 leukemia
MOLT-4 leukemia = test system: MOLT-4 leukemia

CC[CH2][Pb]([CH2]CC)([CH2]CC)[O]C(=O)C(F)(F)F
GI50 (BT-549 breast): 222 nM
TGI (BT-549 breast): 707 nM
GI50 (SK-MEL-5 melanoma): 127 nM
TGI (SK-MEL-5 melanoma): 264 nM
GI50 (SW-620 colon): 78.6 nM
TGI (SW-620 colon): 253 nM
GI50 (TK-10 renal): 204 nM
TGI (TK-10 renal): 533 nM
GI50 (HT29 colon): 186 nM
TGI (HT29 colon): 470 nM
GI50 (RXF 393 renal): 72.4 nM
TGI (RXF 393 renal): 277 nM
GI50 (HCC-2998 colon): 163 nM
TGI (HCC-2998 colon): 343 nM
GI50 (KM12 colon): 125 nM
TGI (KM12 colon): 330 nM
GI50 (OVCAR-5 ovarian): 180 nM
TGI (OVCAR-5 ovarian): 636 nM
GI50 (HL-60(TB) leukemia): 44.6 nM
TGI (HL-60(TB) leukemia): 247 nM
GI50 (ACHN renal): 149 nM
TGI (ACHN renal): 458 nM
GI50 (HOP-62 NSCLC): 176 nM
TGI (HOP-62 NSCLC): 404 nM
GI50 (UO-31 renal): 141 nM
TGI (UO-31 renal): 409 nM
GI50 (MALME-3M melanoma): 89.4 nM
TGI (MALME-3M melanoma): 348 nM
GI50 (PC-3 prostate): 122 nM
TGI (PC-3 prostate): 294 nM
GI50 (HS 578T breast): 94.7 nM
TGI (HS 578T breast): 759 nM
GI50 (SK-OV-3 ovarian): 275 nM
TGI (SK-OV-3 ovarian): 1090 nM
GI50 (MDA-MB-231 breast): 142 nM
TGI (MDA-MB-231 breast): 440 nM
GI50 (IGROV1 ovarian): 177 nM
TGI (IGROV1 ovarian): 627 nM
GI50 (MDA-MB-435): 37.9 nM
TGI (MDA-MB-435): 106 nM
GI50 (A498 renal): 57.9 nM
TGI (A498 renal): 245 nM
GI50 (CAKI-1 renal): 160 nM
TGI (CAKI-1 renal): 501 nM
GI50 (UACC-62 melanoma): 116 nM
TGI (UACC-62 melanoma): 300 nM
GI50 (NCI/ADR-RES ovarian): 298 nM
TGI (NCI/ADR-RES ovarian): 1060 nM
GI50 (RPMI-8226 leukemia): 62.7 nM
TGI (RPMI-8226 leukemia): 403 nM
GI50 (MOLT-4 leukemia): 183 nM
